This assay deals with recombinant NL-Rluc virus. In words: Inhibition of HIV replication (NL-Rluc virus in MT-2 cells, luciferase readout). In kind it is cell-based. To be noted: Human immunodeficiency virus 1, MT2, 120 h.
For orientation: EC50 means the concentration needed to bring the measured effect to its halfway point. `Cc1nc2cc3nn2c(c1[C@H](OC(C)(C)C)C(=O)O)N1CCC(C)(CC1)OC/C=C\CCc1ccccc1Cc1cnc-3s1` (single isomer, unassigned) [Example 2]: the EC50 was found to be 2 nM.
Consider `Cc1nc2cc3nn2c(c1[C@H](OC(C)(C)C)C(=O)O)N1CCC(C)(CC1)OC/C=C/COc1ccccc1Cc1cnn-3c1` [Example 26, (2S)-2-(tert-Butoxy)-2-[(23E)-4,27-dimethyl-21,26-dioxa-1,5,7,8,10,11-hexaazahexacyclo[25.2.2.1^6,9.1^10,13.0^2,7.0^15,20]tritriaconta-2,4,6(33),8,11,13(32),15(20),16,18,23-decaen-3-yl]acetic acid], for which the concentration giving a half-maximal response (EC50) was 2 nM.
On to `Cc1nc2cc3nn2c(c1[C@H](OC(C)(C)C)C(=O)O)N1CCC(C)(CC1)OCC=CCOc1ccccc1Cc1cnc-3s1` [Example 7, (2S)-2-(tert-Butoxy)-2-[4,27-dimethyl-21,26-dioxa-32-thia-1,5,7,8,11-pentaazahexacyclo[25.2.2.1^6,9.1^10,13.0^2,7.0^15,20]tritriaconta-2,4,6(33),8,10,12,15(20),16,18,23-decaen-3-yl]acetic acid], for which the EC50 was found to be 6 nM.
For the compound `Cc1nc2cc3nn2c(c1[C@H](OC(C)(C)C)C(=O)O)N1CCC(C)(CC1)OC/C=C/COc1c(F)cccc1Cc1cnn-3c1` [Example 27, (2S)-2-(tert-Butoxy)-2-[(23E)-19-fluoro-4,27-dimethyl-21,26-dioxa-1,5,7,8,10,11-hexaazahexacyclo[25.2.2.1^6,9.1^10,13.0^2,7.0^15,20]tritriaconta-2,4,6(33),8,11,13(32),15(20),16,18,23-decaen-3-yl]acetic acid], the EC50 came out at 48 nM.
For the compound `Cc1nc2cc3nn2c(c1[C@H](OC(C)(C)C)C(=O)O)N1CCC(C)(CCCCCOc2cccc(c2)Cc2cnn-3c2)CC1` [Example 39, (2S)-2-(tert-Butoxy)-2-{4,26-dimethyl-20-oxa-1,5,7,8,10,11-hexaazahexacyclo[24.2.2.1^6,9.1^10,13.1^15,19.0^2,7]tritriaconta-2,4,6(33),8,11,13(32),15(31),16,18-nonaen-3-yl}acetic acid], the EC50 amounted to 6 nM.
With `Cc1nc2cc3nn2c(c1[C@H](OC(C)(C)C)C(=O)O)N1CCC(C)(CCCCCOc2ccccc2Cn2cc-3cn2)CC1` [Example 40, (2S)-2-(tert-Butoxy)-2-{4,27-dimethyl-21-oxa-1,5,7,8,12,13-hexaazahexacyclo[25.2.2.1^6,9.1^10,13.0^2,7.0^15,20]tritriaconta-2,4,6(33),8,10(32),11,15(20),16,18-nonaen-3-yl}acetic acid] the figure was 4 nM; with `Cc1nc2cc3nn2c(c1[C@H](OC(C)(C)C)C(=O)O)N1CCC(C)(CC/C=C/CCOc2ccccc2Cc2cnn-3c2)CC1` [Example 34, (2S)-2-(tert-Butoxy)-2-[(24E)-4,28-dimethyl-21-oxa-1,5,7,8,10,11-hexaazahexacyclo[26.2.2.1^6,9.1^10,13.0^2,7.0^15,20]tetratriaconta-2,4,6(34),8,11,13(33),15(20),16,18,24-decaen-3-yl]acetic acid], 8 nM.
`Cc1nc2cc3nn2c(c1[C@H](OC(C)(C)C)C(=O)O)N1CCC(C)(CC1)OCCCCOc1ccccc1Cc1cnc-3o1` [Example 6, (2S)-2-(tert-Butoxy)-2-{4,27-dimethyl-21,26,32-trioxa-1,5,7,8,11-pentaazahexacyclo[25.2.2.1^6,9.1^10,13.0^2,7.0^15,20]tritriaconta-2,4,6(33),8,10,12,15(20),16,18-nonaen-3-yl}acetic acid]: the EC50 came to 4 nM.
With `Cc1nc2cc3nn2c(c1[C@H](OC(C)(C)C)C(=O)O)N1CCC(C)(CC1)OCCCCCc1cccc(c1)Cc1cnc-3s1` [Example 4, (2S)-2-(tert-Butoxy)-2-{4,26-dimethyl-25-oxa-32-thia-1,5,7,8,11-pentaazahexacyclo[24.2.2.1^6,9.1^10,13.1^15,19.0^2,7]tritriaconta-2,4,6(33),8,10,12,15(31),16,18-nonaen-3-yl}acetic acid], the EC50 was 22 nM.
The value for `Cc1nc2cc3nn2c(c1[C@H](OC(C)(C)C)C(=O)O)N1CCC(C)(CC1)OCCCC[C@@H](C)Oc1ccccc1Cc1cnc-3s1` [Example 11] was 3 nM; that for `Cc1nc2cc3nn2c(c1[C@H](OC(C)(C)C)C(=O)O)N1CCC(C)(CC1)OC/C=C/CCOc1ccccc1Cc1cnc-3s1` [Example 8, (2S)-2-(tert-Butoxy)-2-[(24E)-4,28-dimethyl-21,27-dioxa-33-thia-1,5,7,8,11-pentaazahexacyclo[26.2.2.1^6,9.1^10,13.0^2,7.0^15,20]tetratriaconta-2,4,6(34),8,10,12,15(20),16,18,24-decaen-3-yl]acetic Acid] was 8 nM; that for `Cc1nc2cc3nn2c(c1[C@H](OC(C)(C)C)C(=O)O)N1CCC(C)(CC1)OC/C=C/CCOc1ccccc1Cc1cnn-3c1` [Example 31, (2S)-2-(tert-Butoxy)-2-[(24E)-4,28-dimethyl-21,27-dioxa-1,5,7,8,10,11-hexaazahexacyclo[26.2.2.1^6,9.1^10,13.0^2,7.0^15,20]tetratriaconta-2,4,6(34),8,11,13(33),15(20),16,18,24-decaen-3-yl]acetic acid] was 2 nM.
With `Cc1nc2cc3nn2c(c1[C@H](OC(C)(C)C)C(=O)O)N1CCC(C)(CC1)OCCCCCOc1ccccc1Cc1cnn-3c1` [Example 33, (2S)-2-(tert-Butoxy)-2-{4,28-dimethyl-21,27-dioxa-1,5,7,8,10,11-hexaazahexacyclo[26.2.2.1^6,9.1^10,13.0^2,7.1^15,20]tetratriaconta-2,4,6(34),8,11,13 (33), 15 (20), 16,18-nonaen-3-yl}acetic acid] the figure was 2 nM; with `Cc1nc2cc3nn2c(c1[C@H](OC(C)(C)C)C(=O)O)N1CCC(C)(C/C=C/CCc2ccc(F)cc2Cc2cnc-3s2)CC1` (single isomer, unassigned) [Example 23], 7 nM.
The value for `Cc1nc2cc3nn2c(c1[C@H](OC(C)(C)C)C(=O)O)N1CCC(C)(CCCCCCOc2ccccc2Cc2cnn-3c2)CC1` [Example 36, (2S)-2-(tert-Butoxy)-2-{4,28-dimethyl-21-oxa-1,5,7,8,10,11-hexaazahexacyclo[26.2.2.1^6,9.1^10,13.0^2,7.0^15,20]tetratriaconta-2,4,6(34),8,11,13(33),15(20),16,18-nonaen-3-yl}acetic acid] was 14 nM; that for `Cc1nc2cc3nn2c(c1[C@H](OC(C)(C)C)C(=O)O)N1CCC(C)(CC1)OCCCCCOc1ccccc1Cc1cnc-3s1` [Example 9, (2S)-2-(tert-Butoxy)-2-{4,28-dimethyl-21,27-dioxa-33-thia-1,5,7,8,11-pentaazahexacyclo[26.2.2.1^6,9.1^10,13.0^2,7.0^15,20]tetratriaconta-2,4,6(34),8,10,12,15(20),16,18-nonaen-3-yl}acetic acid] was 2 nM; that for `Cc1nc2cc3nn2c(c1[C@H](OC(C)(C)C)C(=O)O)N1CCC(C)(CC1)OC/C=C\CCOc1ccccc1Cc1cnn-3c1` [Example 32, (2S)-2-(tert-butoxy)-2-[(24Z)-4,28-dimethyl-21,27-dioxa-1,5,7,8,10,11-hexaazahexacyclo[26.2.2.1^6,9.1^10,13.0^2,7.0^15,20]tetratriaconta-2,4,6(34),8,11,13(33),15(20),16,18,24-decaen-3-yl]acetic acid] was 6 nM.

Source of the values: US9663536B2, “Inhibitors of human immunodeficiency virus replication” (priority 2013, dated 2017).
